Earlier results on one compound are cited in US20100317522A1, “Adjuvants for Agrochemical Applications” (COGNIS IP […], priority 2007, published 2010).

For orientation: LD50 means the dose at which mortality reaches 50%.

The conditions of this data set: rat, oral (WHO).

With `O=C(O)CNCP(=O)(O)O` [Glyphosate, N-(phosphonomethyl)glycine], the LD50 is 4320 mg/kg.
